# Results as given in EP2875809B1, “Product based on an association of glucomannan and inositol” (Dicofarm Spa, priority 2013, dated 2015).
# Key:
# [1] = Menstrual cycle trend (frequency of the period); assay type: in vivo; settings: before the treatment, same group of women with PCOS
# Description: (§1) The women were divided into 3 groups, each group received the treatment according to the following scheme: • Group A: 20 women treated with 1.5 g of myo-inositol + 2 g of glucomannan, twicea day for 3 months, administered half an hour before meals; • Group B: 10 women treated with 1.5 g myo-inositol, twice a day for 3 months, administered half an hour before meals; • Group C: 10 women treated with a dose of 2 g of glucomannan, twice a day for 3 months, adminisered with main meals.
# (§2) In addition to the assessment of blood glucose and insulin levels during OGTT, the menstrual cycle trend has been evaluated in all the women: the 3rd month of treatment at the 22nd day of the menstrual cycle a progesterone dosage was performed and, after 3 months of treatment, an evaluation of acne, hirsutism and body mass index was performed.
# [2] = Plasma progesterone at the 22nd day of the period; assay type: in vivo, women
# Description: as §1, §2
# [3] = Body mass index evaluation; assay type: in vivo, women
# Description: as §1, §2
# [4] = OGTT (oral glucose tolerance test): insulin levels; assay type: in vivo; parameters: unit not given beside the values; settings: OGTT 75 g, women with PCOS, treatment twice a day for 3 months
# Description: (§3) In order to evaluate the effectiveness of this new combination of inositol and glucomannan on blood glucose levels and insulin at baseline and after glucose load curve, it was evaluated the effect in 20 women affected by insulin resistance PCOS and compared with what determined in 2 groups of 10 women each, treated with myo-inositol and glucomannan individually administered.
# as §1
# (§4) In order to determine blood glucose and insulin levels in all samples, OGTT (oral glucose tolerance test) was performed in all women in the early follicular phase of the spontaneous period, or after a progestin-induced, period before starting the treatment and after three months of treatment ([…]) .
# [5] = OGTT (oral glucose tolerance test): blood glucose levels; assay type: in vivo; settings: OGTT 75 g, women with PCOS, treatment twice a day for 3 months
# Description: as §3, §1, §4
# [6] = before treatment, same group of women with PCOS
smiles,measurement,setting,value
O[C@H]1[C@H](O)[C@@H](O)[C@H](O)[C@@H](O)[C@H]1O [myo-inositol],frequency of the period,[1],38 to 42 days
same,plasma progesterone,[2]; 22nd day of the period during the 3rd month of treatment,4.2 ± 0.6 ng/mL
same,plasma progesterone,[2]; [6],2.2 ± 0.2 ng/mL
same,body mass index,[3]; at the 3rd month of treatment,25 ± 1.3
same,body mass index,[3]; [6],27 ± 0.6
same,insulin levels,[4]; time 0,7.6+1.
same,insulin levels,[4]; time 60',57.5±7.13
same,insulin levels,[4]; time 90',48.4±4.81
same,insulin levels,[4]; time 120',40.7±5.57
same,insulin levels,[4]; time 180',34±4.89
same,blood glucose levels,[5]; time 0,90±4.71
same,blood glucose levels,[5]; time 30',130.8±6.56
same,blood glucose levels,[5]; time 90',107.2±10.25
same,blood glucose levels,[5]; time 120',98±6.92
same,blood glucose levels,[5]; time 180',91.1±6.15
